# Test system: human whole blood
# Assay: human whole blood assay verifying inhibitory activity of the inhibitor samples
# Assay type: cell-based
smiles,measurement,value
CC(c1cc2ccccc2s1)N(O)C(N)=O (stereo not shown) [Zileuton],inhibitory activity in a human whole blood assay,verified

# Reference: patent US20090155784A1, “ASSESSMENT OF ASTHMA AND ALLERGEN-DEPENDENT GENE EXPRESSION” (Wyeth, priority 2007, published 2009)
